Earlier results, collected in patent publication US20220184007A1, “FORMULATIONS” (Synchroneuron Inc., priority 2019, published 2022).

Key:
[1] = tested on: psychogenic nonepileptic seizures; details: flexible-dose, open-label, uncontrolled study
[2] = tested on: psychogenic nonepileptic seizures; details: flexible-dose, 12 weeks, 33 subjects, statistically underpowered

| Compound | event reduction [1] | biweekly event frequency change [2] |
| --- | --- | --- |
| COc1ccc(C(CN(C)C)C2(O)CCCCC2)cc1 (centres unmarked) [venlafaxine] | significant event reduction | – |
| CN[C@H]1CC[C@@H](c2ccc(Cl)c(Cl)c2)c2ccccc21 [sertraline] | – | no difference between groups |
